A short description of series [1]: Circular dichroism (CD) spectroscopy. It is filed as physicochemical. To be noted: 0.1 mg/mL in deionized water, room temperature. On the procedure:
All peptides were dissolved in the deionized water at a final concentration of 0.1 mg/mL. The CD spectra were measured by using a 1 nm bandwidth with a 1 nm step resolution from 190 to 260 nm at room temperature (Jasco spectropolarimeter, Japan). Final spectra were obtained from the average of three parallel scans after subtracting a spectrum of deionized water recorded under the same conditions. Each sample was scanned thrice and the averaged spectrum was smoothed. The helicity were calculated by CDNN 2.1 [59], [60].
In general terms: CD spectra are sensitive to the conformation of chiral molecules.

A further series has as its system AsPc-1 cells. Briefly: Cell proliferation assay (CCK-8). It is filed as cell-based. To be noted: 10 μM. On the procedure: (§1) Cells were seeded into 96-well plates (1000 cells per well) and cultured for the indicated times. Cell viability was evaluated using a CCK-8 kit (Solarbio, Beijing, China). The value of OD450 was calculated by spectrophotometer and presented as the mean ± standard deviation (SD) from three individual experiments. […]
CellproliferationassayofAsPc-1cellstreatedwith deionizedwater(Ctrl), 10μMPRTC,10μM […]
(§2) (1 picture or pasted object on this page, not shown here)

Series [2] deals with T1, ubiquitinated CREPT in Panc-1 cells (Homo sapiens, UniProt Q9NQG5).
T1 construct: endogenous protein level of CREPT in Panc-1, AsPc-1 and MIA-PaCa-2 cells; endogenous in cells; host or cells: Panc-1, AsPc-1, MIA PaCa-2
T1 sequence (Q9NQG5 1-326): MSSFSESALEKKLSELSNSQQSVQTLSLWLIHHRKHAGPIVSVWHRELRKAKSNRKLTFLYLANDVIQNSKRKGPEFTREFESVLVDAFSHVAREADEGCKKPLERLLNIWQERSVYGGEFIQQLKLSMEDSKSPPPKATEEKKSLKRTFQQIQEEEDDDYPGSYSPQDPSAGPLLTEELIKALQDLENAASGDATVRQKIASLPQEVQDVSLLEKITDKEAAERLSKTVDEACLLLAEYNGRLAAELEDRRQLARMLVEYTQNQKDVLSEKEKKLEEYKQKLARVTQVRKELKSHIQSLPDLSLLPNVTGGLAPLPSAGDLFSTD
Nature of the series: Endogenous IP of CREPT with ubiquitin (Co-IP). It is filed as cell-based. The note with it: 10 μM peptide for 24 h, IP: CREPT, IB: anti-ubiquitin. On the procedure:
(§3) For exogenous immunoprecipitation assays, HEK293T cells were plated in 60 mm dishes and then transfected with the indicated plasmids. After 24 h, cells were harvested using RIPA buffer (50 mM Tris-HCl pH 8.0, 2 mM EDTA pH 8.0, 150 mM NaCl, 1% NP-40, 0.5% sodium deoxycholate, 0.1% SDS) with mixed protease inhibitors. Cell lysates were incubated with 2 μg of the indicated antibodies and 30 μL of protein A/G-Sepharose beads at 4 °C overnight. Beads were eluted five times with lysis buffer (50 mM Tris-HCl pH 7.6, 1 mM EDTA pH 8.0, 165 mM NaCl, 0.5% NP-40), and thereafter, a western blot assay was performed to analyze the association by using the indicated antibodies. Western blot was performed as previously reported. Anti-β-actin and anti-Flag antibodies were purchased from Sigma. Anti-Myc antibody was purchased from Santa Cruz Biotechnology. Antibody against CREPT was produced in the laboratory.
In addition, a Co-IP experiment was performed in Panc-1 cells treated with 10 μM PRTC, PRTC-m or PRTC-v for 24 h. […] In the absence of MG132, the level of ubiquitinated CREPT was further increased by PRTC (Figure 6C, compare lane 1 and lane 2).
Figure 6 The degradation of CREPT by PRTC is dependent on its VHL ligand. (A) Immunoblot of CREPT following 24 h incubation with different dosages of PRTC or PRTC-v in Panc-1 cells. (B) Immunoblot of CREPT exposed to 10 μM PRTC or PRTC-v for different time points in Panc-1 cells. (C) Endogenous IP experiment of CREPT with ubiquitin treated with 10 μM PTRC, PTRC-m or PTRC-v in Panc-1 cells. IP: CREPT, IB: Anti-ubiquitin.

Series [3] has as its target T2, endogenous CREPT protein in Panc-1 cells (Homo sapiens, UniProt Q9NQG5).
T2 construct: endogenous protein level of CREPT in Panc-1, AsPc-1 and MIA-PaCa-2 cells; endogenous in cells; host or cells: Panc-1, AsPc-1, MIA PaCa-2
T2 sequence (Q9NQG5 1-326): T1 sequence (Q9NQG5 1-326)
Briefly: Western blot of endogenous CREPT (degradation). It is filed as cell-based. The note with it: different dosages (24 h) or time points (10 μM). On the procedure: as §3
(§4) To address whether PRTC could induce CREPT degradation, we examined the endogenous protein level of CREPT in Panc-1, AsPc-1 and MIA-PaCa-2 cells in the presence of different dosages of PRTC. […] Consistently, treatment with PRTC led to decreases in CREPT protein at different times (Figure 5B, S3A). […] To further visualize the degradation process, we stained the endogenous CREPT protein with an antibody against CREPT in the cells treated with FITC-labeled PRTC.
Figure 5 PRTC induces the ubiquitination and proteasome- dependent degradation of the endogenous CREPT protein. (A) Immunoblot of CREPT following 24 h incubation with different dosages of PRTC or PRTC-m in Panc-1 cells. (B) Immunoblot of CREPT exposed to 10 μM PRTC or PRTC-m for different times in Panc-1 cells. (C) Western blot analysis of CREPT following 24 h incubation with 10 μM PTRC in Panc-1 cells. MG132 is an inhibitor of proteasome activity. (D) Immunofluorescence visualization of Panc-1 cells after treatment with PRTC for 24 h. Cells were stained with anti-CREPT antibody. Scale bars, 20 μm.
Background: A western blot detects proteins with antibodies after separation by electrophoresis.

In the next series the test system is MIA PaCa-2 cells. Nature of the series: Cell proliferation assay (CCK-8). It is filed as cell-based. The note with it: 10 μM. On the procedure: as §1
PaCa-2cells treatedwith deionizedH 2O(Ctrl),10μMPRTC, PRTC-mandPRTC-v. […]
as §2

For a further series, the system named is Panc-1 cells. Nature of the series: Confocal fluorescence imaging of FITC labeled peptides in cells. It is filed as cell-based. The note with it: confocal microscope, Panc-1 cells. On the procedure:
To examine whether PRTC could permeate into pancreatic cancer cells, we synthesized fluorescein isothiocyanate (FITC) labeled PRTC, PRTC-m, PRTC-v, PRTC-r (PRTC without RRRRK) as well as TAT (a widely used cell penetrating peptide, as a positive control).
Figure 3 Identification of the permeability of PRTC in Panc-1 cells. (A) Entry of FITC- labeled peptides into Panc-1 cells tested by flow cytometry. FITC-TAT is the positive control. Measurements were performed in triplicate. (B) Quantification of cellular uptake of Panc-1 cells treated with different concentrations of FITC-PRTC. (C) Confocal microscope images of Panc-1 cells treated with 10 μM FITC labeled peptides. Scale bars, 10 μm. (D) Confocal microscope images of Panc-1 cells treated with different dosages of FITC-PRTC. Scale bars, 10 μm.

Series [4] has as its target T2, endogenous CREPT protein in Panc-1 cells. Briefly: Immunofluorescence staining of CREPT in cells treated with FITC-PRTC. Format: cell-based. The note with it: immunofluorescence with anti-CREPT antibody. On the procedure: After adherence, cells were treated with 10 μM PRTC for 24 h. The cells were then gently washed three times with warm PBS, fixed with 4% paraform and incubated with 0.25% Triton X-100 in PBST. Next, the cells were blocked in 5% BSA for 1 h at room temperature and incubated with an antibody against CREPT at 4 °C overnight. Cells were washed 3 times with PBST (0.1% Tween-20) and incubated with TRITC-labeled goat anti-mouse IgG antibody (Jackson ImmunoReseach) at a dilution rate of 1:100 at room temperature for 1 h. Coverslips were imaged by a confocal laser scanning microscope (OLYMPUS).
as §4

These results are taken from publication PMC7069095, “A cell-permeable peptide-based PROTAC against the oncoprotein CREPT proficiently inhibits pancreatic cancer” (Theranostics, 2020).

Consider “KDVLSEKEKKLEEYKQKLARV-RRRRK [PRTC-v, PRTC without the VHL ligand]”, for which the “secondary structure by CD spectrum” value in series [1] is reported as “α-helix structure”. Further, the Helicity in series [1] (190 to 260 nm, average of three scans, calculated by CDNN 2.1) is given as 42.2%. Further, the cell proliferation entry in the series with AsPc-1 cells and in the series on MIA PaCa-2 cells was “failed” each time. In series [2], the “ubiquitinated CREPT proteins” value was “unable to mediate the accumulation”. In series [3], the “degradation of endogenous CREPT protein” value was “failed to degrade”.

Turning to “FITC-AHX-IYP (OH) AL-AHX-KDVLSEKEKKLEEYKQKLARV-RRRRK [FITC-PRTC, fluorescein isothiocyanate (FITC) labeled PRTC]”, in the series on Panc-1 cells (10 μM FITC labeled peptides), the “localization of FITC labeled peptides in the cells” value is given as “strong localization”. Also, in the series on Panc-1 cells (increasing concentration and incubation time, repeated in AsPc-1 and MIA PaCa-2 cells), the subcellular localization result was “localized into the nucleus”. For the same substance, the “endogenous CREPT protein at 24 h” value in series [4] was “almost completely depleted”.
